In US10335409B2 (priority 2012, dated 2019) one finds EC50 data, which are given here for 7 compounds.

The EC50 is the midpoint of the concentration-response curve.

Like-named read-outs stand apart in the source and are kept apart here.

What all share (assay type): cell-based, hepatitis C virus
The subject of assay [1] is genotype 2a (JFH-1) stable HCV replicon in Huh-7-derived cells. In words: Stable subgenomic HCV replicon EC50, genotype 2a (Renilla luciferase). The note with it: Hepatitis C virus, stable replicon genotype 2a, 72 h, read-out: EC50 2A RLUC. How it is done: (§1) Antiviral potency (EC50) was determined in both stable subgenomic HCV replicon cell lines and transient-transfected HCV replicon cells. The term half maximal effective concentration (EC50) refers to the concentration of a drug which induces a response halfway between the baseline and maximum after the exposure time specified below.
(§2) Stable subgenomic HCV replicons for genotype 1a, 1b, 2a, 3a, and 4a were established in Huh-7-derived cells as described by Lohmann et al (Lohmann V, Korner F, Koch J, et al Replication of subgenomic hepatitis C virus RNAs in a hepatoma cell line. Science 1999; 285:119-3) Each stable cell line contains a bicistronic HCV replicon that encodes a humanized Renilla luciferase (hRLuc) reporter gene fused to a selectable neomycin-resistance gene, followed by an EMCV IRES and the NS3-NS5B coding region of HCV. […] Luciferase activity was measured as a marker for intracellular HCV replication levels.
(§3) The genotype 1a stable replicon was derived from the H77 HCV strain and contained adaptive mutations P1496L and S2204I. The genotype 1b stable replicon was derived from the Con1 HCV strain and contained adaptive mutations E1202G, T1280I and K1846T. […] The genotype 3a stable replicon was derived from the S52 HCV strain and contained adaptive mutations P1121L, A1198T and S2210I (equivalent to S2204I in genotype 1). The genotype 4a stable replicon was derived from the ED43 HCV strain and contained adaptive mutations Q1691R and S2204I. All replicon cell lines were propagated in Huh-7-derived cells and maintained in Dulbecco's modified Eagle's Medium (DMEM) supplemented with 10% fetal bovine serum (FBS) and 0.5 mg/mL G418.
(§4) To perform EC50 assays, cells from each HCV replicon were dispensed into 384-well plates. Compounds were dissolved in DMSO at a concentration of 10 mM and diluted in DMSO using an automated pipetting instrument. Three-fold serially diluted compounds were directly added to the cells using an automated instrument. […] Seventy-two hours later, cells were lysed and Renilla luciferase activity were quantified as recommended by the manufacturer (Promega-Madison, Wis.). Non-linear regression was performed to calculate EC50 values.

Assay [2] relates to genotype 1a NS3/4a protease inhibitor resistant variant R155K transient HCV replicon in Huh-7-derived cells. In words: Transient-transfected HCV replicon EC50, genotype 1a R155K. The following applies: Hepatitis C virus, 72 h, read-out: EC50 1A R155K, transient-transfected replicon genotype 1a R155K resistant variant, 72 h. Background: Replicon systems follow genome replication, usually without infectious particles.

Assay [3] has as its system genotype 1b NS3/4a protease inhibitor resistant variant D168A transient HCV replicon in Huh-7-derived cells. Briefly: Transient-transfected HCV replicon EC50, genotype 1b D168A. The note with it: Hepatitis C virus, 72 h, read-out: EC50 1B D168A, transient-transfected replicon genotype 1b D168A resistant variant, 72 h.
For assay [4], the system named is genotype 4a (ED43) stable HCV replicon in Huh-7-derived cells. Briefly: Stable subgenomic HCV replicon EC50, genotype 4a (Renilla luciferase). The following applies: Hepatitis C virus, 72 h, read-out: EC50 4A RLUC. As to the method:
as §1, §2, §3, §4

Assay [5] has as its system genotype 1b (Con1) stable HCV replicon in Huh-7-derived cells. In words: Stable subgenomic HCV replicon EC50, genotype 1b (Renilla luciferase). The following applies: Hepatitis C virus, stable replicon genotype 1b, 72 h, read-out: EC50 1B RLUC. How it is done:
as §1, §2, §3, §4

Assay [6] relates to genotype 1a (H77) wild type transient HCV replicon in Huh-7-derived cells. In words: Transient-transfected HCV replicon EC50, genotype 1a wild type. The note with it: Hepatitis C virus, 72 h, read-out: EC50 1A WT.
Assay [7] concerns genotype 1a (H77) stable HCV replicon in Huh-7-derived cells. In words: Stable subgenomic HCV replicon EC50, genotype 1a (Renilla luciferase). The following applies: Hepatitis C virus, stable replicon genotype 1a, 72 h, read-out: EC50 1A RLUC. How it is done:
as §1, §2, §3, §4

For assay [8], the system named is genotype 1b (Con1) wild type transient HCV replicon in Huh-7-derived cells. Briefly: Transient-transfected HCV replicon EC50, genotype 1b wild type. The note with it: Hepatitis C virus, 72 h, read-out: EC50 1B WT.
Assay [9] concerns genotype 3a (S52) stable HCV replicon in Huh-7-derived cells. In words: Stable subgenomic HCV replicon EC50, genotype 3a (Renilla luciferase). The note with it: Hepatitis C virus, 72 h, read-out: EC50 3A RLUC. As to the method:
as §1, §2, §3, §4

[10] abbreviates: transient-transfected replicon genotype 1a wild type.
The mark [11] stands for this setting: transient-transfected replicon genotype 1b wild type.

On to `CC[C@@H]1[C@@H]2CN(C(=O)[C@H](C(C)(C)C)NC(=O)O[C@@H]3C[C@H]3CCCCCc3nc4ccc(OC)cc4nc3O2)[C@@H]1C(=O)N[C@]1(C(=O)NS(=O)(=O)C2CC2)C[C@H]1C(F)F` [Example 2, (1aR,5S,8S,9S,10R,22aR)-5-tert-butyl-N-[(1R,2R)-1-[(cyclopropylsulfonyl)carbamoyl]-2-(difluoromethyl)cyclopropyl]-9-ethyl-14-methoxy-3,6-dioxo-1,1a,3,4,5,6,9,10,18,19,20,21,22,22a-tetradecahydro-8H-7,10-methanocyclopropa[18,19][1,10,3,6]dioxadiazacyclononadecino[11,12-b]quinoxaline-8-carboxamide], for which the EC50 was 3.9 nM in assay [1]; 7 nM in assay [2]; 33 nM in assay [3]; 2.7 nM in assay [4]; 3.1 nM in assay [5]; 2.4 nM in [6] (setting [10]). The EC50 was determined as 4 nM in assay [7], 1 nM in [8] (setting [11]) and 77 nM in assay [9].
For `CC[C@@H]1[C@@H]2CN(C(=O)[C@H](C(C)(C)C)NC(=O)O[C@@H]3C[C@H]3CCCCCc3nc4ccc(OC)cc4nc3O2)[C@@H]1C(=O)N[C@]1(C(=O)NS(=O)(=O)C2CC2)C[C@H]1CC` [Example 3, (1aR,5S,8S,9S,10R,22aR)-5-tert-butyl-N-{(1R,2R)-1-[(cyclopropylsulfonyl)carbamoyl]-2-ethylcyclopropyl}-9-ethyl-14-methoxy-3,6-dioxo-1,1a,3,4,5,6,9,10,18,19,20,21,22,22a-tetradecahydro-8H-7,10-methanocyclopropa[18,19][1,10,3,6]dioxadiazacyclononadecino[11,12-b]quinoxaline-8-carboxamide], the EC50 was found to be 28 nM in assay [1]; 32 nM in [2]; 128 nM in [3]; 10 nM in assay [4]; 9.8 nM in assay [5]; 6.6 nM in [6] (setting [10]). The EC50 turned out to be 11.7 nM in [7], 3.5 nM in assay [8] (setting [11]) and 546 nM in assay [9].
As for `CC[C@@H]1[C@@H]2CN(C(=O)[C@H](C(C)(C)C)NC(=O)O[C@@H]3CCC[C@H]3CCCCCc3nc4ccc(OC)cc4nc3O2)[C@@H]1C(=O)N[C@]1(C(=O)NS(=O)(=O)C2(C)CC2)C[C@H]1C(F)F` [Example 6, (3aR,7S,10S,11S,12R,24aR)-7-tert-butyl-N-[(1R,2R)-2-(difluoromethyl)-1-{[(1-methylcyclopropyl)sulfonyl]carbamoyl}cyclopropyl]-11-ethyl-16-methoxy-5,8-dioxo-1,2,3,3a,5,6,7,8,11,12,20,21,22,23,24,24a-hexadecahydro-10H-9,12-methanocyclopenta[18,19][1,10,3,6] dioxadiazacyclononadecino[11,12-b]quinoxaline-10-carboxamide], the EC50 in [1] is 34 nM; in assay [2], 58 nM; in assay [3], 216 nM; in assay [4], 34 nM; in [5], 36 nM; in assay [6] (setting [10]), 26 nM. The EC50 in [7] is 35 nM; in assay [8] (setting [11]), 11 nM; in assay [9], 1360 nM.
In the case of `CC[C@@H]1[C@@H]2CN(C(=O)[C@H](C(C)(C)C)NC(=O)O[C@@]3(C)C[C@@H]3CCCCCc3nc4ccc(OC)cc4nc3O2)[C@@H]1C(=O)N[C@]1(C(=O)NS(=O)(=O)C2(C)CC2)C[C@H]1C(F)F` [Example 8, (1aS,5S,8S,9S,10R,22aS)-5-tert-butyl-N-[(1R,2R)-2-(difluoromethyl)-1-{[(1-methylcyclopropyl)sulfonyl]carbamoyl}cyclopropyl]-9-ethyl-14-methoxy-1a-methyl-3,6-dioxo-1,1a,3,4,5,6,9,10,18,19,20,21,22,22a-tetradecahydro-8H-7,10-methanocyclopropa[18,19][1,10,3,6] dioxadiazacyclononadecino[11,12-b]quinoxaline-8-carboxamide], the EC50 in [1] is 20 nM; in [2], 28 nM; in [3], 89 nM; in assay [4], 13 nM; in [5] it was 8.6 nM; in [6] (setting [10]), 8.8 nM. The EC50 in assay [7] is 16 nM; in assay [8] (setting [11]) it was 4.8 nM; in [9], 465 nM.
As for `CC[C@@H]1[C@@H]2CN(C(=O)[C@H](C3CCCC3)NC(=O)O[C@@H]3C[C@H]3CCCCCc3nc4ccc(OC)cc4nc3O2)[C@@H]1C(=O)N[C@]1(C(=O)NS(=O)(=O)C2CC2)C[C@H]1C(F)F` [Example 15, (1aR,5S,8S,9S,10R,22aR)-5-cyclopentyl-N-[(1R,2R)-1-[(cyclopropylsulfonyl)carbamoyl]-2-(difluoromethyl)cyclopropyl]-9-ethyl-14-methoxy-3,6-dioxo-1,1a,3,4,5,6,9,10,18,19,20,21,22,22a-tetradecahydro-8H-7,10-methanocyclopropa[18,19][1,10,3,6]dioxadiazacyclononadecino[11,12-b]quinoxaline-8-carboxamide], the EC50 amounted to 9.8 nM in assay [1]; 20 nM in assay [2]; 182 nM in [3]; 7.8 nM in assay [4]; 6.8 nM in assay [5]; 6.5 nM in [6]. Further, the EC50 amounted to 11 nM in assay [7], 3 nM in assay [8] and 550 nM in assay [9].
For `COc1ccc2nc3c(nc2c1)O[C@H]1CN(C(=O)[C@H](C(C)(C)C)NC(=O)O[C@@H]2C[C@H]2CCCCC3)[C@H](C(=O)N[C@]2(C(=O)NS(=O)(=O)C3CC3)C[C@H]2C(F)F)[C@@H]1C` [Example 19, (1aR,5S,8S,9S,10R,22aR)-5-tert-butyl-N-[(1R,2R)-1-[(cyclopropylsulfonyl)carbamoyl]-2-(difluoromethyl)cyclopropyl]-14-methoxy-9-methyl-3,6-dioxo-1,1a,3,4,5,6,9,10,18,19,20,21,22,22a-tetradecahydro-8H-7,10-methanocyclopropa[18,19][1,10,3,6]dioxadiazacyclononadecino[11,12-b]quinoxaline-8-carboxamide], the concentration giving a half-maximal response (EC50) came to 4.6 nM in assay [1]; 3.4 nM in assay [2]; 28 nM in assay [3]; 3.1 nM in assay [4]; 2.6 nM in assay [5]; 2.1 nM in assay [6]. Moreover, the figures for the EC50 in [7], in assay [8] and in assay [9] were 4 nM, 1.1 nM and 89 nM, respectively.
On to `CC[C@@H]1C[C@]1(NC(=O)[C@@H]1[C@H](C)[C@@H]2CN1C(=O)[C@H](C(C)(C)C)NC(=O)O[C@@H]1C[C@H]1CCCCCc1nc3ccc(OC)cc3nc1O2)C(=O)NS(=O)(=O)C1CC1` [Example 20, (1aR,5S,8S,9S,9S,10R,22aR)-5-tert-butyl-N-{(1R,2R)-1-[(cyclopropylsulfonyl)carbamoyl]-2-ethylcyclopropyl}-14-methoxy-9-methyl-3,6-dioxo-1,1a,3,4,5,6,9,10,18,19,20,21,22,22a-tetradecahydro-8H-7,10-methanocyclopropa[18,19][1,10,3,6]dioxadiazacyclononadecino[11,12-b]quinoxaline-8-carboxamide], for which the EC50 in assay [1] was determined as 19 nM; in assay [2], 17 nM; in assay [3] it was 90 nM; in assay [4], 5.9 nM; in assay [5], 5.2 nM; in [6] it was 3.4 nM. In addition, the EC50 in assay [7] was found to be 8.1 nM; in [8], 2.7 nM; in assay [9], 392 nM.
